Results from publication PMC6407204, “Oral administration of the cannabigerol derivative VCE-003.2 promotes subventricular zone neurogenesis and protects against mutant huntingtin-induced neurodegeneration” (Translational Neurodegeneration, 2019).
Entries after “also recorded” stand apart in the source; their conditions may differ.

Test system: S. typhimurium TA98 and S. typhimurium TA100
Assay: AMES reverse mutation assay, overall statement
Assay type: cell-based
Settings: absence and presence of S9 metabolic activation
Method: Supplementary file 40035_2019_148_MOESM4_ESM.pdf: Additional file 4: AMES Data Summary. AMES Experimental Procedure. Approximately ten million bacteria are exposed in triplicate to VCE-003-.2 (7.8, 15.6, 31.3, 62.5, 125 and 250 μg/ml), a negative control (vehicle) and a positive control for 90 min in medium containing a low concentration of histidine (sufficient for about 2 doublings). The cultures were then diluted into indicator medium lacking histidine and dispensed into 48 wells of a 384 well plate (micro-plate format, MPF). The plate was incubated for 48 h at 37 °C, and the number of wells showing growth were counted and compared to the vehicle control. An increase in the number of colonies of at least two-fold over baseline (mean + SD of the vehicle control) and a dose response indicates a positive response. […] Where indicated, S9 fraction from the livers of Aroclor 1254-treated rats was included in the incubation at a final concentration of 4.5%. An NADPH-regenerating system is also included to ensure a steady supply of reducing equivalents. The strains used in this study were S. typhimurium TA98 (hisD3052, rfa, uvrB/pKM10 for detection of frame-shift mutations) and S. typhimurium TA100 ([…], rfa, uvrB/pKM101 for detection of base-pair substitutions). VCE-003.2 was assessed for its mutagenic potential in the AMES reverse mutation assay. […]

With `CCCCCC1=C(NCC)C(=O)C(CC=C(C)CCC=C(C)C)=C(O)C1=O` [VCE-003.2, 2-(3,7-dimethyl-octa-2,6-dienyl)-6-ethylamino-3-hydroxy-5-pentyl-(1,4) benzoquinone] the “genotoxicity in AMES assay (in words)” value was “not genotoxic; also recorded: negative for genotoxicity”.
